We go through one substance from patent US20050043262A1, “Novel specific inhibitor of the cyclin kinase inhibitor p21Waf1/Cip1 and methods of using the inhibitor” (priority 2000, published 2005).

The experiment concerns cyclinD/cdk4. The experiment in a line: Cyclin D1 immunoprecipitation / cdk4 immunoblot in A431 cells. It is filed as cell-based, human. The following applies: PDGF-BB 30 ng/ml. The source says:
Cyclin/cdk interactions occur after growth factor stimulation and serve to integrate such responses with the CKIs and transmit them to the Rb/E2F systems, which leads to mitogenic signal transmission. The cyclin D1/cdk 4 interaction occurs early after growth factor stimulation (reviewed in (Arellano and Moreno, 1997 Int. J. Biochem. Cell Biol., 29, p. 559-573)), while the cyclinE/cdk2 interaction occurs late in G1 and is thought to have a role in triggering the actual onset of DNA replication after the cells have passed the restriction point (reviewed in (Sherr and Roberts, 1995: Genes Dev., 9, p. 1149-1163)). A431 cells were transfected with p21^Waf1/Cip1 antisense (SEQ. ID NO.:1) or sense (SEQ. ID NO.:2) oligodeoxynucleotide, allowed to grow overnight in serum-free media, and then stimulated for various times with PDGF-BB. The cells were subsequently immunoprecipitated with either cyclinD1 or cyclinE and immunoblotted with cdk4 or cdk2, respectively. A lysate sample, showing the mobility of the immunoprecipitated cdks, confirmed the identity of the cdks. A431 cells were transfected with antisense (SEQ. ID NO.:1) or sense p21^Waf1/Cip1 (SEQ. ID NO.:2) oligonucleotides. […]

Regarding 5′-GACATCACCAGGATCGGACAT-3′, the cyclinD/cdk4 association entry is listed as “no change”.
